Assays:
Assay in all cases: biochemical
Set-up in all cases: scanMAX competition binding; kinase recovered on immobilized ligand quantified by qPCR, per cent of control
Conditions in all cases: read-out: APA (POC)
HIPK4 = HIPK4 (Homo sapiens, UniProt Q8NE63)
Protocol: (§1) The binding affinities of APA and NAPA were evaluated in the scanMAX^sm Kinase Assay Panel (DiscoverX) at a final concentration of 10 µM. The compounds were tested for steric or allosteric binding to kinases in solution. The kinase was captured from the solution through an immobilized kinase-specific ligand and the kinase recovery was quantified. The amount of recovered kinase in the presence or absence of APA or NAPA was measured by quantitative PCR compared with the kinase capture in absence of the compound. Any compound reducing the binding affinity of a kinase to the respective immobilized ligand was scored as a potential hit, and the binding affinity of the compound toward a kinase is interpreted as the difference between the kinase recovery in the absence and presence of the compound. The inhibitory binding constants (Kd) of APA and NAPA to AURKA were evaluated in a KdELECT Kinase Assay (DiscoverX). […] Data acquisition followed the same methodology as for the scanMAX^sm Kinase Assay Panel. 6 Supplementary Figure 4. Kinome inhibition profiles of APA and its NAT2 metabolite NAPA identifies preferential APA kinase targets and differential binding to AURKA a The human kinome was assessed for binding affinity to APA and NAPA at 10 µM concentration (468 kinases in the scanMAX Kinase Assay Panel, DiscoverX). The family stratification of kinases is shown as a cladogram. Circles visualize the binding affinity of NAPA and APA towards each kinase with a higher intensity of blue corresponding to a higher binding affinity. […] One single data point from one experiment at a concentration 18.5 µM of APA was excluded as an outlier. c Thermal shift assay for human recombinant AURKA in the presence of APA and the selective inhibitor S1451. Melting temperatures were obtained by calculating the first derivative of the tryptophan fluorescence ratio at 350 nm and 330 nm and are shown for AURKA in the presence of S1451 (blue) and APA (yellow). Structural similarities between APA and kinase inhibitors[27] prompted investigation of protein kinases as mediators of APA toxicity. […] To enrich for kinase interactions that could explain the preferential killing of slow NAT2 cells, we compared the binding affinity of each kinase with APA and NAPA, selected 44 targets with preferential binding to APA and excluded kinases non-essential for cell survival and those not expressed in CRC cells (Supplementary Fig. 4A, Supplementary Table 4). […] The growth inhibition of RKO and DLD-1 following siRNA-mediated AURKA knockdown (Figs. 3c, d) reflected the relative efficiency of protein downregulation (Supplementary Fig. 5C, D). […] (Supplementary Fig. 4C). AURKA regulates cell cycle progression through association with other centrosome and spindle-associated proteins. Its activation requires auto-phosphorylation at Thr288 and ensures spindle pole integrity, centrosome duplication as well as adequate chromosomal alignment and segregation, while its inhibition leads to multipolar spindles with acentrosomal poles[28],[31]. […] S1451 reduced the fraction of pAURKA levels by >90% regardless of NAT2 expression (Fig. 3f and Su

JAK3_JH1 = target: T1, JAK3_JH1 (Homo sapiens, UniProt P52333)
T1 construct: gene JAK3; JH1 domain
T1 sequence (P52333 whole entry, the tested form may be a part): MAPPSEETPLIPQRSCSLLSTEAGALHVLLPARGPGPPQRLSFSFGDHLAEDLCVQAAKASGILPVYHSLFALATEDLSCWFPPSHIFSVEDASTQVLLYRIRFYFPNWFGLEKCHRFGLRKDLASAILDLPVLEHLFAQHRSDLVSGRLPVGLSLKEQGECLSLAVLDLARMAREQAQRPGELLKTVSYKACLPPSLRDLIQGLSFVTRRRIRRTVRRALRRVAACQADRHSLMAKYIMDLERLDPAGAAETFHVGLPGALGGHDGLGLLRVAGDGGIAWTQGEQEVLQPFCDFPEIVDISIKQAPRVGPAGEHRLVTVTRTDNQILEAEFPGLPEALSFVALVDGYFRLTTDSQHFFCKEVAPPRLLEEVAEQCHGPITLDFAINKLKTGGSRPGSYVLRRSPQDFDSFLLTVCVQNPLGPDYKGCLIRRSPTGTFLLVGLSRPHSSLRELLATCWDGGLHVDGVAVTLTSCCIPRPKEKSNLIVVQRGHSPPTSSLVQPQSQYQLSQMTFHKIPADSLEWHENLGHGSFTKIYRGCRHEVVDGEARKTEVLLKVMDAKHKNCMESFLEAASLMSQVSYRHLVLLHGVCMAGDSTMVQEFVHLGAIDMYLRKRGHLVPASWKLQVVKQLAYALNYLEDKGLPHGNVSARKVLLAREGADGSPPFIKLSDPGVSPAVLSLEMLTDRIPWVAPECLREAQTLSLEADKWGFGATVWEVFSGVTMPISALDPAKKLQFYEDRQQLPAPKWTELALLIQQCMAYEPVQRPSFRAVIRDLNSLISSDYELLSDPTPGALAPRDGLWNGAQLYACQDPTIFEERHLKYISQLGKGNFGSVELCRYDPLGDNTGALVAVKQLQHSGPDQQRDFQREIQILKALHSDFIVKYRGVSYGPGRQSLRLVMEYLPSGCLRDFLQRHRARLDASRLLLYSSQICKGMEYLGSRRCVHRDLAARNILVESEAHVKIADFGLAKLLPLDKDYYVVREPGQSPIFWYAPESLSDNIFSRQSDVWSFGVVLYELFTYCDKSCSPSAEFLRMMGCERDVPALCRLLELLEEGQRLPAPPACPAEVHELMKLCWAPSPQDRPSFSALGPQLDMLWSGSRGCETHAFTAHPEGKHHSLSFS
Protocol: as §1

CLK2 = CLK2 (Homo sapiens, UniProt P49760)
Protocol: as §1

EIF2AK4 = EIF2AK4 (Homo sapiens, UniProt Q9P2K8)
Protocol: as §1

CAMK2A = CAMK2A (Homo sapiens, UniProt Q9UQM7)
Protocol: as §1

MKNK2 = MKNK2 (Homo sapiens, UniProt Q9HBH9)
Protocol: as §1

RET = RET (Homo sapiens, UniProt P07949)
Protocol: as §1

FLT1 = FLT1 (Homo sapiens, UniProt P17948)
Sequence of FLT1 (P17948 whole entry): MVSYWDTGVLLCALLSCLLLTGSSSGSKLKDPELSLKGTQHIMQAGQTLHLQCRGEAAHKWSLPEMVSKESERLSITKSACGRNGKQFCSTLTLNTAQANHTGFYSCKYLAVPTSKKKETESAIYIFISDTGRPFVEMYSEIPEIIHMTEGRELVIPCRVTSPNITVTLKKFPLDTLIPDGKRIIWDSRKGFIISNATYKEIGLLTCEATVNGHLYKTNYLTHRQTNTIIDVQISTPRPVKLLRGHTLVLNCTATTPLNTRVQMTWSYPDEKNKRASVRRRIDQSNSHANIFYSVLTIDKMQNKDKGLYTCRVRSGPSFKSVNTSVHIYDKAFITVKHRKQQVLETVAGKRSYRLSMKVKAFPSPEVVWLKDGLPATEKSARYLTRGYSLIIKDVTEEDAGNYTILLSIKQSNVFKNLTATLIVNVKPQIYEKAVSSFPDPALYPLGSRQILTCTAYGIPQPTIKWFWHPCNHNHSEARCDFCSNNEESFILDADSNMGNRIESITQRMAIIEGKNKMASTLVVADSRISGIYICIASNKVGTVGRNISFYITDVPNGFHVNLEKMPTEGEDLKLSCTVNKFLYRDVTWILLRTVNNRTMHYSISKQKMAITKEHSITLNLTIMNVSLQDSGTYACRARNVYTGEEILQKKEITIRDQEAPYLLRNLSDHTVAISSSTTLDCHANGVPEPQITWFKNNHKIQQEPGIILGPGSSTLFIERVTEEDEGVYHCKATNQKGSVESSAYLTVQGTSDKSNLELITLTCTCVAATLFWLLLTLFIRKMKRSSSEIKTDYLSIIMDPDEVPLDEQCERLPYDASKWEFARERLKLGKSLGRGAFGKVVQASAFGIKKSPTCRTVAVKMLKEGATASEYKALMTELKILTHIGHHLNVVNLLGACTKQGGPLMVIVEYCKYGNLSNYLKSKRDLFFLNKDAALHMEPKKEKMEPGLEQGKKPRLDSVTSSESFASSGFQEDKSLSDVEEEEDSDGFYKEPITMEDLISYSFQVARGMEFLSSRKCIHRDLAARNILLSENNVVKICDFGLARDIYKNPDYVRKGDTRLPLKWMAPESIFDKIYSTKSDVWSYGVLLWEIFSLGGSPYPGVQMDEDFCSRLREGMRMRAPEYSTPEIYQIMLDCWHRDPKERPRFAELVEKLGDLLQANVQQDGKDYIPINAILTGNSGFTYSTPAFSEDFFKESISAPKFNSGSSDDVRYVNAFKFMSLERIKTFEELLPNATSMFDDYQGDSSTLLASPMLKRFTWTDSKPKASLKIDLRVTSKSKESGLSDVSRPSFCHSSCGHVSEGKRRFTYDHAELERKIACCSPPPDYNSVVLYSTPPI
Protocol: as §1

DYRK1A = DYRK1A (Homo sapiens, UniProt Q13627)
Protocol: as §1

NTRK3 = NTRK3 (Homo sapiens, UniProt Q16288)
Protocol: as §1

MAP3K11 = MAP3K11 (Homo sapiens, UniProt Q16584)
Sequence of MAP3K11 (Q16584 whole entry): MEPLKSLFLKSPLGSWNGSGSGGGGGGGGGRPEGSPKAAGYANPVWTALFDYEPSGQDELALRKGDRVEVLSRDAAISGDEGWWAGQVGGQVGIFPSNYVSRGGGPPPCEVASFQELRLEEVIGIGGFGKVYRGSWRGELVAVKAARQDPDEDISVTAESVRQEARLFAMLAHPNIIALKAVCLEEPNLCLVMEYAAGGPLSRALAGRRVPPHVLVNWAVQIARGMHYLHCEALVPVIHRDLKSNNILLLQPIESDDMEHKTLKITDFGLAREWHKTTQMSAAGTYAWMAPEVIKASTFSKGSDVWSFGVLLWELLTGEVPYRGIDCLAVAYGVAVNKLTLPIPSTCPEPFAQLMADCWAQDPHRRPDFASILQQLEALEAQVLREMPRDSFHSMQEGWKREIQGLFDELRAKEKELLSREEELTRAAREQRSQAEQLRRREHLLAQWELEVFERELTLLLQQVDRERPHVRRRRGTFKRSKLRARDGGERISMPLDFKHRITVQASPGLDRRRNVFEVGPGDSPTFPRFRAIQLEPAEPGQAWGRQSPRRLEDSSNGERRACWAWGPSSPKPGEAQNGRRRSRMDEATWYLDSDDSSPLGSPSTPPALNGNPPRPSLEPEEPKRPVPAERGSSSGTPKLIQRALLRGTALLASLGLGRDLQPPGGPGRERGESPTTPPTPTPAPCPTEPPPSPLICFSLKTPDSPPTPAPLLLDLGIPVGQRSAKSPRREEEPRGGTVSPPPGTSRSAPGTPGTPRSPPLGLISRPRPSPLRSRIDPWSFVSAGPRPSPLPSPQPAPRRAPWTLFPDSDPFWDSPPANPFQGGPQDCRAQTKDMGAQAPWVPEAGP
Protocol: as §1

MAP3K9 = MAP3K9 (Homo sapiens, UniProt P80192)
Sequence of MAP3K9 (P80192 whole entry): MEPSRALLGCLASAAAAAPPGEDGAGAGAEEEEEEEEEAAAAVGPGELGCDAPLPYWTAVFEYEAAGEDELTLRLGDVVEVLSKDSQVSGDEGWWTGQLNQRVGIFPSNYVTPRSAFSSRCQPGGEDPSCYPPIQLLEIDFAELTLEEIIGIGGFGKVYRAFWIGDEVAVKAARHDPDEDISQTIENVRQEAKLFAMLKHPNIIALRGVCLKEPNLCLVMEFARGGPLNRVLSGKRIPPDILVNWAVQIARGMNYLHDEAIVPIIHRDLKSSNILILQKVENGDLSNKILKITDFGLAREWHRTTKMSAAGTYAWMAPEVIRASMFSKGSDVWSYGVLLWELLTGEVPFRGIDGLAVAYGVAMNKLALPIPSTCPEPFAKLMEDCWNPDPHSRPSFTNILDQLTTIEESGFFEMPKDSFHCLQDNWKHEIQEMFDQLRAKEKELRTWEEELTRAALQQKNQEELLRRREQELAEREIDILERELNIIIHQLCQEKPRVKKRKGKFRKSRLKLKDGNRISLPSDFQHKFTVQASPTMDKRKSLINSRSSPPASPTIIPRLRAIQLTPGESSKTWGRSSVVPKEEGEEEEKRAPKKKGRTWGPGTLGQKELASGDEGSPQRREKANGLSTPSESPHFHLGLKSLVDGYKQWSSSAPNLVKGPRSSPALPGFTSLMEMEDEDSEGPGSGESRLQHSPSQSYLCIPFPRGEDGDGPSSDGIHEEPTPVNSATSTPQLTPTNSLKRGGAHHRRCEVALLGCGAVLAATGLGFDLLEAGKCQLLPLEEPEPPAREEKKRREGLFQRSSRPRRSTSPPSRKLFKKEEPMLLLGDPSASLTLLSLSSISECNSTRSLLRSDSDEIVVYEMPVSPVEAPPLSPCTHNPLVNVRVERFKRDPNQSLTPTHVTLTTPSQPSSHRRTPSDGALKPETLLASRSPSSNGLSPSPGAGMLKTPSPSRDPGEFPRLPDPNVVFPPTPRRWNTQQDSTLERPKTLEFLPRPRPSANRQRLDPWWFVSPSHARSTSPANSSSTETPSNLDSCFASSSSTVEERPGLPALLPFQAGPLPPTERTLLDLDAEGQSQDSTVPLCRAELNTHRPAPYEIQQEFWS
Protocol: as §1

PIP5K1A = PIP5K1A (Homo sapiens, UniProt Q99755)
Sequence of PIP5K1A (Q99755 whole entry): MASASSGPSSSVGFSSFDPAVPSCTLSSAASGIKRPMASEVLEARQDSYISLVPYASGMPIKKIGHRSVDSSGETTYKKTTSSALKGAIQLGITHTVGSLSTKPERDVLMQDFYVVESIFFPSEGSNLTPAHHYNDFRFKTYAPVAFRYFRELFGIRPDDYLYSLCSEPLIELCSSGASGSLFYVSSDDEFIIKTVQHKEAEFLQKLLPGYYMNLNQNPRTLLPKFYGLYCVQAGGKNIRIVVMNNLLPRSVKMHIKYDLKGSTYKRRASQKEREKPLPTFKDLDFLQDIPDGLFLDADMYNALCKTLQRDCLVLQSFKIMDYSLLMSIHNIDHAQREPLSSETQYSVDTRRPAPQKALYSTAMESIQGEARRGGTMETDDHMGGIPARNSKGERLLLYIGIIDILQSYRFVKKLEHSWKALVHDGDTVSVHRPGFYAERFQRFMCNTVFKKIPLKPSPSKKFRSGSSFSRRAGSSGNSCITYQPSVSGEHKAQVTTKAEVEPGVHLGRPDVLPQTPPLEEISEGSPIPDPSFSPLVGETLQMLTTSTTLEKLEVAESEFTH
Protocol: as §1

ABL2 = ABL2 (Homo sapiens, UniProt P42684)
Protocol: as §1

GRK4 = GRK4 (Homo sapiens, UniProt P32298)
Protocol: as §1

COc1cc(Nc2cncc(-c3ccc(N)cc3)n2)cc(OC)c1OC [APA, 6-(4-aminophenyl)-N-(3,4,5-trimethoxyphenyl)pyrazin-2-amine]
remaining binding at 10 µM (HIPK4): 10% | remaining binding at 10 µM (JAK3_JH1): 19% | remaining binding at 10 µM (CLK2): 27% | remaining binding at 10 µM (EIF2AK4): 38% | remaining binding at 10 µM (CAMK2A): 59% | remaining binding at 10 µM (MKNK2): 26% | remaining binding at 10 µM (RET): 24% | remaining binding at 10 µM (FLT1): 36% | remaining binding at 10 µM (DYRK1A): 7.8% | remaining binding at 10 µM (NTRK3): 11% | remaining binding at 10 µM (MAP3K11): 22% | remaining binding at 10 µM (MAP3K9): 8.5% | remaining binding at 10 µM (PIP5K1A): 52% | remaining binding at 10 µM (ABL2): 14% | remaining binding at 10 µM (GRK4): 15%
